According to patent publication US9586994B2, “CD44V6-derived peptides for treating breast cancer” (KARLSRUHER INSTITUT FÜR TECHNOLOGIE, priority 2012, dated 2017):

Legend:
CD44v6 [1] = target: T1, CD44v6 (Homo sapiens, UniProt P16070); experiment: Peptide blocking of EGF-induced Erk phosphorylation in MCF10A cells (Western blot); assay type: cell-based; conditions: MCF10 cells, serum-starved; peptide 100 ng/ml; EGF 20 ng/ml
T1 construct: endogenous in cells; host or cells: MCF7; MCF10A
Experimental: (§1) 3×10^5 were seeded per well of a 6-well plate and serum-starved for 24 hours. Afterwards the medium inside of each well was reduced to 1 ml and the respective peptide (v6 (both peptides of SEQ ID No.: 2 and 6 were tested), or ctrl peptide) was added at a concentration of 100 ng/ml. The cells then were incubated together with the peptide at 37° C. for 5 mins. Ligand concentration for all peptide blocking experiments was 20 ng/ml.
(§2) To assay protein expression via Western blot cells were washed 1× with PBS and afterwards lysed in 2×Laemmli sample buffer (160 mM Tris-HCl pH 6.8, 4% SDS, 16% glycerol, 0.1M DTT, 0.01% bromphenol blue). The sample was sheared through a 26 gauge needle. In succession the lysates were boiled for 5 mins at 99° C. in order to denature the proteins in the sample and then spun down at 10 000 rmp for 1 min Eventually the samples were loaded onto an SDS-PAGE gel.
(§3) To test whether CD44v6 acts as a co-receptor in MCF7 or MCF10A cells, a peptide blocking experiment using peptides of SEQ ID NO: 6 was conducted. The cells were serum-starved for 24 h and then pre-incubated with a v6 peptide or an unspecific control peptide. Then, the cells were induced with EGF or HGF as a control. As a read-out for ErbB-activation, the phosphorylation of the Erk-kinase was used.

L3.6pl cells = experiment: Human VEGF in cell culture supernatant of L3.6pl cells (Quantikine immunoassay); assay type: cell-based; conditions: peptide 200 ng/ml in the culture medium, 5 days
Experimental: Determination of human HGF and VEGF levels in cell culture medium of L3.6pl cells were performed using the Quantikine Human HGF Immunoassay and Quantikine Human VEGF Immunoassay from Roche (Mannheim, GER) and R&D Systems (Wiesbaden, Germany) For this purpose 3×10^6 cells were cultured for 5 days in a 15 cm plate in the presence of the respective peptides as indicated. The supernatant by centrifugation (20 ml) was centrifuged (1200 rpm) and the assay was performed according to manufacturer's instructions.

CD44v6 [2] = experiment: HGF-induced activation of Met and Erk in HT29 cells (Western blot); assay type: cell-based, human
Experimental: FIG. 28: A: Activation of Met and signal transduction induced by HGF depends on CD44v6 in L3.6pl cells. L3.6pl cells were treated with the human v6 peptide (human v6 14mer) or the rat v6 peptide as control prior to induction with 10 ng/ml HGF. Activation of Met and ERK was determined in western blot. The numbers refer to the fold induction. The experiment was repeated at least 5 times. B: Activation of c-Met and signal transduction induced by HGF depends on CD44v6 HeLa cells. Starved HeLa cells respectively HT29 cells were incubated with the v6 peptide (human v6 14mer) or a control peptide for 10 minutes at 37° C. and then induced with 25 ng/ml of HGF for the indicated time points. Cells were then either lysed and the lysates were subjected to Western Blot analysis for phospho-Met and Met. C: Activation of c-Met and signal transduction induced by HGF depends on CD44v6 in HT29 cells. HGF-induced c-Met and Erk phosphorylation in HT29 was determined as described above using phospho-specific antibodies. […]
The contribution of CD44v6 to Met signaling in the human epithelial pancreatic cancer cells L3.6pl (derived from Colo 357), the cervix carcinoma cells HeLa and the colon cancer cells HT29 were analysed using the CD44v6 peptide (v6 14mer; v6 5mer tested as well, data not shown).

CD44v6 [3] = target: T1, CD44v6; experiment: Peptide blocking of EGF/TGFα-induced Erk phosphorylation in MCF7 cells (Western blot); assay type: cell-based; conditions: peptide 100 ng/ml; for EGF-induced activation of the ErbB receptors (Erk phosphorylation): MCF7, serum-starved, EGF 20 ng/ml
Experimental: as §1, §2, §3

CD44v6 [4] = experiment: Peptide blocking of ErbB ligand- or HGF-induced Erk-kinase phosphorylation in HT29 cells (Western blot); assay type: cell-based, human; conditions: peptide 100 ng/ml; for EGF-dependent Erk-phosphorylation: EGF 20 ng/ml
Experimental: as §1
The cells were incubated with the growth factors specified in the particular experiment. Except for the peptide blocking and migration assays, ligand concentration was 5 ng/ml at all times. Prior to induction the cells were treated as indicated in the results section.
as §2
In order to test whether CD44v6 plays a role in the activation of the ErbB family of receptors, a peptide blocking experiment using the 14mers of SEQ ID No. 6 was performed in HT29 cells. The fact that this cell line expresses all ErbB receptors (Wu et al, 2009, see references) and several CD44 variants including also exon v3 and v6 (Orian-Rousseau et al., 2002, see references) makes it a suitable tool to evaluate the co-receptor function of CD44 proteins for the ErbB family. The first ErbB1-ligand that was evaluated was EGF. […] The cells were serum starved for 24 hours and induced with EGF. Phosphorylation of the Erk-Kinase, a downstream target of the ErbB receptor family, was used as a read-out for ErbB receptor activation. HGF was used as a control to test the blocking efficiency of the CD44v6 peptide since the induction of the Erk kinase through Met is dependent on CD44v6 (Orian-Rousseau et al., 2002, see references).
Besides EGF, five other ligands, namely AR, BC, ER, HB-EGF, and TGFα, can activate the ErbB1 receptor. EGF, AR and TGFα bind to either an ErbB1-homo- or an ErbB1/2-heterodimer. In addition to these dimers, BC, ER and HB-EGF can also bind to an Erb4/4 homo- or an ErbB2/4 heterodimer. It was investigated whether the activation of the ErbB receptors by the indicated ligands is also dependent on CD44v6. HT29 cells were serum-starved for 24 hours and pre-treated with the v6-specific or a control peptide. They were then induced with the indicated ErbB ligands. Erk-kinase phosphorylation was used as a read-out for receptor activation.
For this purpose HT29 cells were serum-starved for 24 hours and pre-treated with the v6-specific or a control peptide. They were then induced with the indicated ErbB ligands. Erk-kinase phosphorylation was used as a read-out for receptor activation. All ligands could activate the Erk-kinase. […] These ligands are independent of CD44v6 for their induction of the ErbB receptors. This is especially striking, since EGF and TGF-α address the same receptor pairs (ErbB1/1 or ErbB1/2).

T1 sequence (P16070 21-742): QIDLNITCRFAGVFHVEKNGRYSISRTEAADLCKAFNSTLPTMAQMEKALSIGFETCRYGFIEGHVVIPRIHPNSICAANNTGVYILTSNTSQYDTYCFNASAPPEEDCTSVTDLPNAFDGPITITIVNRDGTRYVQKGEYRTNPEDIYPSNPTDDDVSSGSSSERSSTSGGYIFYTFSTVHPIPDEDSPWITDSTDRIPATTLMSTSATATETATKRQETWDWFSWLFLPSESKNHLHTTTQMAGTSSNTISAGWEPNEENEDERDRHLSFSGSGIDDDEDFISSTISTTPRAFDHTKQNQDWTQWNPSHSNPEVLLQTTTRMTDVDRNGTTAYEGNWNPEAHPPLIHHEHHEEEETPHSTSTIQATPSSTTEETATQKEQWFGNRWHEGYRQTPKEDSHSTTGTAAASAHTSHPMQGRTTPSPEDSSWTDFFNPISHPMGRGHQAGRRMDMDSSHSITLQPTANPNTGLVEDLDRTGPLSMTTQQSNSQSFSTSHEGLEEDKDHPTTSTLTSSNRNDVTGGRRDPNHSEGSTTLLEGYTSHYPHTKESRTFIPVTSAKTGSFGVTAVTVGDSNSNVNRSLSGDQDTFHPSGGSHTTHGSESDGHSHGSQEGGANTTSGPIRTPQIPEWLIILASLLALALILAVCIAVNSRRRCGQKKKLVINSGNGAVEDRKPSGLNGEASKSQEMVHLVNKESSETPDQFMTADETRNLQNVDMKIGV

How did the “EGF-induced activation of the ErbB receptors (Erk phosphorylation)” value (CD44v6 [1]) turn out when “KEQWFGNRWHEGYR [SEQ ID NO: 6, human CD44v6 14mer peptide]” was run?
The value was “could be blocked”.

And the “hVEGF secretion by L3.6pl cells” value (L3.6pl cells)?
Its value is “can be blocked”.

What about the “HGF-induced activation of Met” value (CD44v6 [2]; HT29, starved, peptide 10 min 37° C., HGF 25 ng/ml) of the same sequence?
Its value is “able to prevent activation”.

And the “HGF-induced activation of downstream target Erk” value (CD44v6 [2]; HT29, peptide before induction with HGF)?
The value was “able to prevent activation”.

And the “EGF-induced activation of the ErbB receptors (Erk phosphorylation)” value (CD44v6 [3])?
The value was “blocking of Erk phosphorylation”.

What about the “EGF-induced activation of the ErbB receptors (Erk phosphorylation)” value (CD44v6 [3]; listed as CD44v6-specific peptide) of the same sequence?
Its value is “could be blocked”.

What about the “Erk phosphorylation upon TGFα induction” value (CD44v6 [3]; MCF7, TGFα 20 ng/ml) of the same sequence?
Its value is “not upon TGFα induction”.

And the “EGF-dependent Erk-phosphorylation” value (CD44v6 [4]; HT29, serum-starved, 5 min pre-incubation, listed as CD44v6 peptide)?
Its value is “could be inhibited”.

What about the “EGF-dependent Erk-phosphorylation” value (CD44v6 [4]; HT29, serum-starved, 5 min pre-incubation, listed as human v6 14mer) of the same sequence?
Its value is “inhibited”.

And the “HGF-dependent Erk-phosphorylation” value (CD44v6 [4]; HT29, serum-starved, 5 min pre-incubation, HGF as control ligand)?
The value was “could be inhibited”.

And the “AR-induced activation of the ErbB receptors (Erk phosphorylation)” value (CD44v6 [4]; HT29, AR 20 ng/ml)?
The value was “could not be inhibited”.

And the “BC-induced activation of the ErbB receptors (Erk phosphorylation)” value (CD44v6 [4]; HT29, BC 20 ng/ml)?
Its value is “could not be inhibited”.

What about the “ER-dependent Erk-phosphorylation” value (CD44v6 [4]; HT29, ER 20 ng/ml) of the same sequence?
Its value is “inhibited”.

What about the “HB-EGF-induced activation of the ErbB receptors (Erk phosphorylation)” value (CD44v6 [4]; HT29, HB-EGF 20 ng/ml) of the same sequence?
The value was “could not be inhibited”.

What about the “TGFα-induced activation of the ErbB receptors (Erk phosphorylation)” value (CD44v6 [4]; HT29, TGFα 20 ng/ml) of the same sequence?
Its value is “could not be inhibited”.
